Laboratory results: the supplement of paper PMC10307832

Tests used:
Assay in all cases: relative viability (nuclei count vs DMSO), 5 days (fraction); higher = more cells survive
Everolimus + Bortezomib = compound: CO[C@H]1C[C@@H]2CC[C@@H](C)[C@@](O)(O2)C(=O)C(=O)N2CCCC[C@H]2C(=O)O[C@H]([C@H](C)C[C@@H]2CC[C@@H](OCCO)[C@H](OC)C2)CC(=O)[C@H](C)/C=C(\C)[C@@H](O)[C@@H](OC)C(=O)[C@H](C)C[C@H](C)/C=C/C=C/C=C/1C [Everolimus] + CC(C)C[C@H](NC(=O)[C@H](Cc1ccccc1)NC(=O)c1cnccn1)B(O)O [Bortezomib] (partner 0.002 µM)
Outline: (§1)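 The day after seeding in 1536-well plates, lung cancer cell lines were treated by pin tool with a single drug, or with a fixed anchor-drug dose together with five library-drug doses (not always all listed) in √10 steps. After 5 days, a combined fix-and-stain solution (final 0.05% Triton X-100, 1% formaldehyde, 1 ug/ml Hoechst) was added. Nuclei counted on 4× images gave relative viability as treated counts over vehicle counts, reported as the median of duplicate plates.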

Everolimus + Lapatinib = compound: CO[C@H]1C[C@@H]2CC[C@@H](C)[C@@](O)(O2)C(=O)C(=O)N2CCCC[C@H]2C(=O)O[C@H]([C@H](C)C[C@@H]2CC[C@@H](OCCO)[C@H](OC)C2)CC(=O)[C@H](C)/C=C(\C)[C@@H](O)[C@@H](OC)C(=O)[C@H](C)C[C@H](C)/C=C/C=C/C=C/1C [Everolimus] + CS(=O)(=O)CCNCc1ccc(-c2ccc3ncnc(Nc4ccc(OCc5cccc(F)c5)c(Cl)c4)c3c2)o1 [Lapatinib] (partner 2 µM)
Outline: as §1

Everolimus + AZD7762 = compound: CO[C@H]1C[C@@H]2CC[C@@H](C)[C@@](O)(O2)C(=O)C(=O)N2CCCC[C@H]2C(=O)O[C@H]([C@H](C)C[C@@H]2CC[C@@H](OCCO)[C@H](OC)C2)CC(=O)[C@H](C)/C=C(\C)[C@@H](O)[C@@H](OC)C(=O)[C@H](C)C[C@H](C)/C=C/C=C/C=C/1C [Everolimus] + NC(=O)Nc1cc(-c2cccc(F)c2)sc1C(=O)N[C@H]1CCCNC1 [AZD7762] (partner 0.2 µM)
Outline: as §1

Everolimus + Decitabine = compound: CO[C@H]1C[C@@H]2CC[C@@H](C)[C@@](O)(O2)C(=O)C(=O)N2CCCC[C@H]2C(=O)O[C@H]([C@H](C)C[C@@H]2CC[C@@H](OCCO)[C@H](OC)C2)CC(=O)[C@H](C)/C=C(\C)[C@@H](O)[C@@H](OC)C(=O)[C@H](C)C[C@H](C)/C=C/C=C/C=C/1C [Everolimus] + Nc1ncn([C@H]2C[C@H](O)[C@@H](CO)O2)c(=O)n1 [Decitabine] (partner 2 µM)
Outline: as §1

Cell Line	relative viability (Everolimus + Bortezomib; first compound 0.01 µM)	relative viability (Everolimus + Bortezomib; first compound 0.03162 µM)	relative viability (Everolimus + Bortezomib; first compound 0.1 µM)	relative viability (Everolimus + Bortezomib; first compound 0.3162 µM)	relative viability (Everolimus + Bortezomib; first compound 1 µM)	relative viability (Everolimus + Lapatinib; first compound 0.01 µM)	relative viability (Everolimus + Lapatinib; first compound 0.03162 µM)	relative viability (Everolimus + Lapatinib; first compound 0.1 µM)	relative viability (Everolimus + Lapatinib; first compound 0.3162 µM)	relative viability (Everolimus + Lapatinib; first compound 1 µM)	relative viability (Everolimus + AZD7762; first compound 0.01 µM)	relative viability (Everolimus + AZD7762; first compound 0.03162 µM)	relative viability (Everolimus + AZD7762; first compound 0.1 µM)	relative viability (Everolimus + AZD7762; first compound 0.3162 µM)	relative viability (Everolimus + AZD7762; first compound 1 µM)	relative viability (Everolimus + Decitabine; first compound 0.01 µM)	relative viability (Everolimus + Decitabine; first compound 0.03162 µM)	relative viability (Everolimus + Decitabine; first compound 0.1 µM)	relative viability (Everolimus + Decitabine; first compound 0.3162 µM)	relative viability (Everolimus + Decitabine; first compound 1 µM)
H3255	0.518	0.458	0.359	0.394	0.44	0.249	0.238	0.266	0.212	0.225	0.74	0.562	0.595	0.632	0.509	0.409	0.433	0.322	0.371	0.315
HARA	1.07	1.14	0.904	1.11	1.01	0.546	0.468	0.541	0.714	0.526	0.15	0.335	0.223	0.309	0.252	0.451	0.426	0.426	0.572	0.474
HCC-15	1.01	1.09	0.968	1.06	1.07	0.899	0.899	0.881	0.981	0.871	1.37	1.26	1.33	1.24	1.48	0.597	0.463	0.511	0.604	0.482
HCC-44	0.978	0.958	0.937	1.08	0.858	1.01	1.11	1.12	1.01	0.938	1.1	1.18	1.03	1.12	1.25	0.933	0.975	0.937	0.954	0.896
HCC-78	0.428	0.375	0.384	0.371	0.314	0.633	1.28	0.521	0.36	0.534	0.455	0.427	0.361	0.553	0.384	0.593	0.605	0.636	0.643	0.603
HCC-366	1.02	1.07	0.983	0.878	0.772	0.89	1.11	0.994	0.992	0.589	0.371	0.245	0.334	0.29	0.209	0.301	0.226	0.257	0.291	0.212
HCC-827	0.995	1.19	1.07	1.16	1.09	0.191	0.13	0.163	0.204	0.153	0.188	0.164	0.185	0.193	0.163	0.282	0.234	0.303	0.319	0.287
HOP-62	0.493	0.662	0.399	0.489	0.574	0.646	0.569	0.533	0.659	0.782	0.289	0.346	0.412	0.402	0.37	0.223	0.278	0.195	0.251	0.321
LC-2-ad	1.05	1.1	0.997	0.943	1	0.924	0.874	0.941	0.931	1.08	0.802	0.85	0.775	0.79	0.83	0.846	0.779	0.888	0.819	0.726
LCLC-97TM1	0.607	0.489	0.525	0.246	0.495	0.611	0.869	0.759	0.817	0.852	0.273	0.145	0.189	0.221	0.148	0.197	0.205	0.184	0.208	0.218
LOU-NH91	0.504	0.521	0.488	0.521	0.518	0.553	0.56	0.58	0.615	0.546	0.651	0.654	0.621	0.645	0.647	0.718	0.76	0.702	0.699	0.686
LU99A	0.647	0.599	0.543	0.568	0.614	0.621	0.548	0.573	0.52	0.55	0.213	0.279	0.213	0.246	0.33	0.537	0.514	0.43	0.485	0.566
LXF-289	0.976	1.01	0.987	1.03	1.01	0.908	0.951	0.889	0.889	0.899	1.18	1.28	1.17	1.12	1.24	0.358	0.359	0.306	0.38	0.411
NCI-H23	0.497	0.471	0.334	0.565	0.555	0.736	0.685	0.491	0.695	0.693	0.144	0.185	0.218	0.219	0.175	0.264	0.283	0.257	0.259	0.254
NCI-H322M	0.974	0.995	1.01	0.939	0.948	0.547	0.545	0.601	0.526	0.508	0.473	0.39	0.481	0.397	0.43	0.766	0.7	0.585	0.596	0.609
NCI-H460	0.827	0.982	0.672	0.881	1.08	0.912	0.919	0.805	0.866	0.84	0.669	0.658	0.657	0.465	0.431	0.498	0.53	0.506	0.369	0.421
NCI-H596	0.813	0.716	0.658	0.612	0.589	0.715	0.677	0.545	0.676	0.677	0.945	0.726	0.609	0.665	0.674	0.761	0.595	0.739	0.69	0.605
NCI-H647	0.635	0.59	0.601	0.635	0.693	0.583	0.562	0.505	0.536	0.87	0.249	0.273	0.237	0.207	0.364	0.16	0.157	0.101	0.0533	0.158
NCI-H650	0.649	–	0.556	0.571	0.458	0.652	–	0.716	0.598	0.479	0.711	0.737	0.755	0.531	0.69	0.316	0.287	0.335	0.281	0.318
NCI-H727	0.513	0.546	0.434	0.597	0.52	0.435	0.543	0.402	0.527	0.561	0.482	0.483	0.454	0.565	0.523	0.73	0.594	0.591	0.642	0.617
NCI-H838	0.42	0.48	0.377	0.41	0.597	0.517	0.535	0.48	0.439	0.625	0.767	0.777	0.75	0.831	0.763	0.435	0.444	0.356	0.384	0.392
NCI-H1355	0.611	0.567	0.593	0.592	0.564	0.471	0.44	0.363	0.53	0.436	0.552	0.468	0.456	0.471	0.376	0.353	0.3	0.305	0.318	0.261
NCI-H1437	0.443	0.505	0.342	0.302	0.413	0.642	0.55	0.464	0.508	0.417	1.1	1.11	1.1	0.997	0.875	0.597	0.483	0.59	0.461	0.466
NCI-H1651	0.766	0.66	0.8	0.731	0.564	0.537	0.391	0.497	0.533	0.521	0.197	0.218	0.224	0.208	0.231	0.532	0.383	0.464	0.489	0.484
NCI-H1666	0.644	0.527	0.494	0.56	0.533	0.459	0.445	0.335	0.45	0.475	0.855	0.84	0.821	0.899	0.908	0.676	0.553	0.639	0.75	0.672
NCI-H1734	0.529	0.624	0.497	0.515	0.546	0.715	0.582	0.582	0.551	0.73	0.336	0.365	0.291	0.283	0.313	0.422	0.397	0.351	0.371	0.367
NCI-H1755	0.785	0.492	0.736	0.723	0.714	0.866	0.964	0.769	0.876	0.77	0.379	0.39	0.382	0.344	0.345	0.582	0.56	0.489	0.52	0.534
